According to paper PMC10877733, “Discovery and Characterization of VU0542270, the First Selective Inhibitor of Vascular Kir6.1/SUR2B KATP Channels” (Molecular Pharmacology, 2024):
Values joined by “and” are separate entries in the source; they are usually repeats but may differ in a detail not shown here. Equal entries are not always repeated.

What was measured:
[1] = target: T1, Kir6.1/SUR2B (Homo sapiens, UniProt O60706); experiment: Whole-cell patch clamp electrophysiology, T-Rex-HEK293-Kir6.1/SUR2B cells; format: cell-based
T1 construct: expressed in transfected cells; also transiently transfected HEK293T
Procedure: T-Rex-HEK293-Kir6.1/SUR2B cells were plated into tissue culture-treated 35-mm polystyrene dishes at a density of 250,000 cells and cultured in a 5% CO2 incubator at 37°C. Whole-cell patch-clamp recordings were performed 48 hours after plating. Cells were dissociated on the experiment day and plated on poly-L-lysine–coated coverslips and allowed to recover for at least 1 hour in a 37°C/5% CO2 incubator before beginning experiments. Patch electrodes (2 to 3 MΩ) were filled with an intracellular solution containing 130 mM KCl, 2 mM MgCl2, 1 mM EGTA, 20 mM HEPES-free acid, and 2 mM Na2ATP (Roche Diagnostics, Risch-Rotkreuz, Switzerland), pH 7.3, titrated with KOH, and osmolarity 275 mOsmol/kg of water (adjusted with sucrose). The standard bath solution contained 135 mM NaCl, 5 mM KCl, 2 mM CaCl2, 1 mM MgCl2, 5 mM glucose, and 10 mM HEPES-free acid, pH 7.4, titrated with NaOH. Serial dilutions of compounds were first made in DMSO and then in bath solution so that the final DMSO concentration was 0.1% v/v across all test doses. Macroscopic currents were recorded under voltage-clamp conditions using an Axopatch 200B Amplifier (Molecular Devices, Sunnyvale, CA). Data were collected at 5 kHz and filtered at 1 kHz. […] IC50 values were determined by fitting the Hill equation to CRCs using variable-slope nonlinear regression analyses. […]

[2] = Intrinsic clearance in liver microsomes, mouse; format: in vitro ADME
Procedure: The in vitro intrinsic clearance (CLint) of VU0542270 was investigated in commercially obtained hepatic microsomes from rat, mouse, and human donors using the substrate depletion (i.e., loss-of-parent versus time, or t1/2 method) approach with analyte detection via LC-MS/MS. For each species, mean per cent parent remaining values at each time point were calculated from replicates raw data (analyte:IS peak area ratios) and used to determine in vitro t1/2 and CLint.
Experiments were carried out using a robot-assisted liquid handling system (TECAN model Evo 200). VU0542270 was incubated (1 µM final concentration) in buffer (100 mM potassium phosphate, pH 7.4, with 3 mM MgCl2) containing hepatic microsomes (0.5 mg/mL final concentration) from multiple species, discretely, at 37°C under constant orbital shaking. After 5 minutes (preincubation), reactions were initiated by the addition of NADPH (1 mM final concentration). At selected time intervals (0, 3, 7, 15, 25, and 45 minutes) post addition of NADPH, aliquots (50 µL) were taken and placed into a 96-shallow-well plate containing ice-cold acetonitrile (150 µL) with carbamazepine (IS, 50 nM). The plates were then centrifuged (3000 rcf at 4°C) for 10 minutes. […]
Predicted hepatic clearance (CLhep) was calculated using the following equation: [drawing 4] […]

T1 sequence (O60706 1-1549 isoform O60706-2, species assumed): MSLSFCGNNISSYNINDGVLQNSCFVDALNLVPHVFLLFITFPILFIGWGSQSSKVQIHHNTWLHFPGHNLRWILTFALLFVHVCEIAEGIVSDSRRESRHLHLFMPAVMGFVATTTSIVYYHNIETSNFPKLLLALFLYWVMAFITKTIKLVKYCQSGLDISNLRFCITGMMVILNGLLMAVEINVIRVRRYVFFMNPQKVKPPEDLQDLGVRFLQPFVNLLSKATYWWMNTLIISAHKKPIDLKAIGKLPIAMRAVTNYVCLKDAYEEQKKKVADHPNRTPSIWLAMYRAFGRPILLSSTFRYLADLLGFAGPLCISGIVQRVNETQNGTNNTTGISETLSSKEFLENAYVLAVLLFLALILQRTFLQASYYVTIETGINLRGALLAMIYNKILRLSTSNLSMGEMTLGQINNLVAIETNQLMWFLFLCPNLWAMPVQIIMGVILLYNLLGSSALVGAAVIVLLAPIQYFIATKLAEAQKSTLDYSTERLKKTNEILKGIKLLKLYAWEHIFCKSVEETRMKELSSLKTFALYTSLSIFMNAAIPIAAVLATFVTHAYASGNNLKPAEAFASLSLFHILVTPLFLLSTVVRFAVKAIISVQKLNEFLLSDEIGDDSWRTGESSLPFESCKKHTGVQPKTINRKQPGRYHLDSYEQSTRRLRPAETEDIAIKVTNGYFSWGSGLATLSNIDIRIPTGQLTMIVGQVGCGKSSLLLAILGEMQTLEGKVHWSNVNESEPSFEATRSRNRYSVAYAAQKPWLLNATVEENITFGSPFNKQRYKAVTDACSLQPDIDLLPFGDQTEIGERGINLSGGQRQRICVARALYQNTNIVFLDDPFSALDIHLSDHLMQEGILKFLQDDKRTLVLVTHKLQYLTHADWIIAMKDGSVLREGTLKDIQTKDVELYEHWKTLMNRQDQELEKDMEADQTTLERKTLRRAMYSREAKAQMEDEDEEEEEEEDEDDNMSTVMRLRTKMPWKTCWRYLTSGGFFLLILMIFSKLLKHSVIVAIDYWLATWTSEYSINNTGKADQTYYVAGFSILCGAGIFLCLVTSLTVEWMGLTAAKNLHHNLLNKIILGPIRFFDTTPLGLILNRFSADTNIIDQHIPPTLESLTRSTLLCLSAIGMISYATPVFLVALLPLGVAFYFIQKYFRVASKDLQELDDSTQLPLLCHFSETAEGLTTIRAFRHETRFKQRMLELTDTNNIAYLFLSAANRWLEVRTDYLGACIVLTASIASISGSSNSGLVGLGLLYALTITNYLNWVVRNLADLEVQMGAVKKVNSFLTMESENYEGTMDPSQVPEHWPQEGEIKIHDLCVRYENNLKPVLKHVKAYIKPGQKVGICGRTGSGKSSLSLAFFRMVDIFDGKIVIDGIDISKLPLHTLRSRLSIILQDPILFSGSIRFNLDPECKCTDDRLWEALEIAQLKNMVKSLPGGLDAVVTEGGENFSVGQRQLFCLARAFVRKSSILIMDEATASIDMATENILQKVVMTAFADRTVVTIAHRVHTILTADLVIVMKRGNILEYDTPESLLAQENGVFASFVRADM
T1 sequence (Q15842 whole entry partner, species assumed): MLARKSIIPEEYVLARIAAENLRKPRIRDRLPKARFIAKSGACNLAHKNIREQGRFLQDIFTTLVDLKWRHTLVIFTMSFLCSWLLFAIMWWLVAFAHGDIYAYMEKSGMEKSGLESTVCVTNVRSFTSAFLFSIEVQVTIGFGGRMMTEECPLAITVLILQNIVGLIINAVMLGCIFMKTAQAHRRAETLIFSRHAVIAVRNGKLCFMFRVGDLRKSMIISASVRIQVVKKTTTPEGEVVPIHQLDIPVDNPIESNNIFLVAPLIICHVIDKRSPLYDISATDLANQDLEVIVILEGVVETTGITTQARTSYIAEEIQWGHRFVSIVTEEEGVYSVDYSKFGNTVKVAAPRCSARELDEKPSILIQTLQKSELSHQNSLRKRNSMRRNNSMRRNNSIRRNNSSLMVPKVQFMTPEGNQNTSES

For `Cc1nc(-c2cccs2)sc1CNC(=O)Nc1cccs1` [VU0542270], the IC50 ([1]; 1 µM pinacidil-activated, normalized to maximal inhibition by 10 µM VU0542270, read-out: Kir6.1/SUR2B IC50, whole-cell current) was ~279 nM and 278 nM, the “inhibition of KATP current” value ([1]; 10 µM compound in continued presence of 1 µM pinacidil) was “complete inhibition” and the “Predicted CLhep,u (mouse)” value ([2]; corrected to plasma unbound fraction) was 27 mL/min per kg. For the same compound, the “Predicted CLhep (mouse)” value ([2]; from microsomal CLint) was 88 mL/min per kg.
